According to patent publication US20050080570A1, “Predicting probabilities of achieving a desired minimum trough level for an anti-infective agent” (priority 2003, published 2005):
Where two headings read alike, the source gives them in different places.

Columns and labels:
[1] = 100% human serum; fourth study; cited from earlier work
[2] = average value across the studies

Compound	Protein-binding correction factor, Average [2]	Protein-binding correction factor, 100% HS [1]	Protein-binding correction factor, Average (human)
O=C1Nc2ccc(Cl)cc2[C@@](C#CC2CC2)(C(F)(F)F)O1 [EFV, Efavirenz]	18.4	25.5	
Cc1c(O)cccc1C(=O)N[C@@H](CSc1ccccc1)[C@H](O)CN1C[C@H]2CCCC[C@H]2C[C@H]1C(=O)NC(C)(C)C [NFV, Nelfinavir]	46.1	90.6	
Cc1ccnc2c1NC(=O)c1cccnc1N2C1CC1 [NVP, Nevirapine]	1.3	1.2	
CC(C)(C)NC(=O)[C@@H]1C[C@@H]2CCCC[C@@H]2CN1C[C@@H](O)[C@H](Cc1ccccc1)NC(=O)[C@H](CC(N)=O)NC(=O)c1ccc2ccccc2n1 [SQV, Saquinavir]			23.4
